Read-outs that look alike come from different tables or passages of the source.
What was measured:
[1] = system: IP-10 release in differentiated THP-1 cells; assay: IP-10 cytokine release assay in THP-1 cell lines; format: cell-based, Human; conditions: for EC50: Homo sapiens
Description: Percent release of Interferon gamma-induced protein 10 (IP-10) was determined in acute monocytic leukemia (THP-1; ATCC® TIB-202™) cell line. THP-1 cells (0.2×10^6 cells/well) were differentiated using phorbol 12-myristate 13-acetate (PMA, 10 nM (final concentration); Cat #P8139, Sigma) and incubated for 24 h at 37° C., 5% CO2 in an incubator (cell culture conditions) prior to treating with serial dilutions of compounds (3 fold, 6 point dose response starting at 10 μM). After treatment with the compounds cells were further incubated for 2 h under cell culture conditions and then exposed to 2′,3′-cGAMP (c-GAMP, 1 μM (final concentration); Cat #SML 1229, Sigma). Differentiated THP-1 cells were further cultured for 24 h after which the supernatant was harvested, and ELISA was performed as per the manufacturer's protocol (BD optEIA Human IP-10 ELISA Set; Cat #550926 & 550534, BD Biosciences). Plates were read in Biotek plate reader by measuring absorbance at 450 nm.
The release of absolute IP-10 in differentiated THP-1 by compounds in the presence of cGAMP was quantified with reference to standard after subtracting blank (negative) reading from the test readings. The absolute release of IP-10 in the presence of cGAMP (1 μM) is given in the bar-graph (FIG.-1) and in the table-B2a.
The release of IP-10 in differentiated THP-1 by compounds over cGAMP induced release at four different concentrations of cGAMP (1, 5, 10 & 30 μM) was quantified with reference to standard by normalizing the blank (negative) subtracted test readings from average of cGAMP activated cells at that particular concentration. The EC50's was calculated by fitting the curve to the “four-parameter variable slope logistic model” using Prism Graph Pad.

[2] = molecular target: ENPP-1 (Ectonucleotide Pyrophosphatase/Phosphodiesterase 1) (Homo sapiens (Human), UniProt P22413); assay: ENPP1 inhibition assay (AMP Glo, cGAMP substrate); format: biochemical
Description: IC50 values of compounds against ENPP-1 (Ectonucleotide Pyrophosphatase/Phosphodiesterase 1) were determined at Integral BioSciences (India) using AMP Glo (Promega, Cat #V5011). Assay was performed in a 30 μL final volume in a white 96-well Half Area plate (Costar,Cat #3693). Dose response curve for the compounds were prepared in duplicates with starting conc. at 5 μM and a three-fold titration was performed. The reaction buffer consisted of 50 mM Tris (pH 8.0), 0.5 mM CaCl2), 1 μM ZnCl2, 250 mM NaCl and 0.1 mg/ml BSA. To the compound dilution, 15 μL of ENPP1 enzyme (R&D Systems; Cat #6136-EN-010) was added to each well (final conc. 1 nM) and the mix was pre-incubated for 15 min at RT. An equal volume (15 μL) containing cGAMP (Sigma, Cat #SML-1229) (final conc. 20 μM) was added to initiate the enzyme reaction and the reaction was incubated for 30 min at RT. The reaction was then stopped by heating at 90° C. for 3 minutes. 10 μl of reaction was then transferred to 384 well white, medium binding plates (Grenier, Cat #781075) to which 10 μl of AMP-Glo Reagent 1 was added and mixed well and incubated for 1 hour at 25° C. Following 60 min incubation, 20 μL of detection mixture was added to the enzyme reaction bringing the final volume to 40 μL. The reaction was further incubated for 60 min at RT after which the plates were read using BioTek Plate reader.
Analysis was done using the standard curve by non-linear regression, variable slope inhibitor curve fits (Graph-Pad Prism) and IC50's of compounds were determined wherever possible.

[3] = THP-1, read-out: EC50 (μM)@ 1 μM of cGAMP
[4] = cGAMP 20 μM substrate, ENPP1 1 nM
[5] = read-out: EC50 (μM)@ 1 μM of cGAMP, IP-10 release over cGAMP induced release, THP-1, 1 μM cGAMP

Chain of ENPP-1 (Ectonucleotide Pyrophosphatase/Phosphodiesterase 1) (P22413 whole entry): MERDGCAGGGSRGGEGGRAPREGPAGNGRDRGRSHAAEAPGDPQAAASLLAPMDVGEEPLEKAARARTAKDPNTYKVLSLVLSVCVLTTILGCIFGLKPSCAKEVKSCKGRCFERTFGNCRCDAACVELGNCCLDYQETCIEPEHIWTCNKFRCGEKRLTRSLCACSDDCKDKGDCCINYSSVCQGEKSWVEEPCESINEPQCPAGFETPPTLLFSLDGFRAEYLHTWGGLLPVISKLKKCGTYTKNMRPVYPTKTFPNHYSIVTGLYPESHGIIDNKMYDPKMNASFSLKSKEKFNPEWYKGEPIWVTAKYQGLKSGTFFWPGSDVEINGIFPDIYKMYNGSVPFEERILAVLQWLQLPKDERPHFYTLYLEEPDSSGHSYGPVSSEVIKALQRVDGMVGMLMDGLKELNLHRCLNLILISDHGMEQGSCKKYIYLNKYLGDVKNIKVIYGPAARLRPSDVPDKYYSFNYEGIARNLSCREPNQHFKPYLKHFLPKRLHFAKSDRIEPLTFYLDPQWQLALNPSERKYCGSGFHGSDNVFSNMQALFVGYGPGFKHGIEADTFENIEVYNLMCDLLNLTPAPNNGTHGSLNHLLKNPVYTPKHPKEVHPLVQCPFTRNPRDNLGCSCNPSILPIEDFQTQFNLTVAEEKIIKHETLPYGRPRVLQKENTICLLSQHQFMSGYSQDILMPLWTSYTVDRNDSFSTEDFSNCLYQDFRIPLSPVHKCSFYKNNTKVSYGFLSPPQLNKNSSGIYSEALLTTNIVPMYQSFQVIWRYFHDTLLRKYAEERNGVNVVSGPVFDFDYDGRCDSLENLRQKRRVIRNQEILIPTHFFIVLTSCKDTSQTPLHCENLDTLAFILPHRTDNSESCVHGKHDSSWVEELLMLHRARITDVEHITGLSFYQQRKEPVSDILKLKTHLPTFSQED

Compound	IC50 [2, 4] [µM]	also measured
Nc1nc2c(ncn2[C@@H]2O[C@@H]3COP(=O)(O)O[C@H]4[C@@H](O)[C@H](n5cnc6c(N)ncnc65)O[C@@H]4COP(=O)(O)O[C@@H]2[C@@H]3O)c(=O)[nH]1 [CGAMP, 2′,3′-cGAMP, reference compound]		Percent release IP-10 (Absolute) ([1]; cGAMP (1 μM) alone, differentiated THP-1): 5.6%
COc1cc2ncnc(N3CC(CCNC(C)=O)C3)c2cc1OC [Compound 1.7, N-(2-[1-(6,7-dimethoxyquinazolin-4-yl)azetidin-3-yl]ethyl)acetamide]		EC50 [1, 3]: > 30 µM
COc1cc2nc(C)nc(N3CC(CCNS(N)(=O)=O)C3)c2cc1OC [Compound 1.17, 4-(3-(2-sulfamoylaminoethyl)azetidine-1-yl)-6,7-dimethoxy-2-methylquinazoline]		IC50 [2]: 0.057 µM; EC50 [1, 3]: 0.129 µM
COc1cc2ncnc(N3CC(CCN(C)S(N)(=O)=O)C3)c2cc1OC [Compound 1.47, 4-(3-(2-sulfamoylmethylaminoethyl)azetidine-1-yl)-6,7-di-methoxyquinazoline]		EC50 [1, 5]: 19.9 µM
COc1cc2ncnc(N3CC4(CC(C(=O)NO)C4)C3)c2cc1OC [Compound 1.63, 2-(6,7-dimethoxyquinazolin-4-yl)-N-hydroxy-2-azaspiro[3.3]heptane-6-carboxamide]		EC50 [1, 5]: < 0.12 µM
COc1cc2ncnc(N3CC(CCCNS(N)(=O)=O)C3)c2cc1OC [Compound 1.69, 4-3-(3-sulfamoylaminopropyl)azetidin-1-yl-6,7-dimethoxyquinazoline]		EC50 [1, 5]: 0.724 µM
Cc1cc(Cl)n2ncnc(N3CC4(CC(N(CC5CCCCC5)S(N)(=O)=O)C4)C3)c12 [Compound 1.117, N-(2-(7-chloro-5-methylpyrrolo[2,1-f][1,2,4]triazin-4-yl)-2-azaspiro[3.3]heptan-6-yl)-N-(cyclohexylmethyl)sulfamide]	0.239	
Cc1cc(Cl)n2ncnc(N3CC4(CC(N(CC5CCC(C(F)(F)F)CC5)S(N)(=O)=O)C4)C3)c12 (centres unmarked) [Compound 1.119, N-(2-(7-chloro-5-methylpyrrolo[2,1-f][1,2,4]triazin-4-yl)-2-azaspiro[3.3]heptan-6-yl)-N-((4-(trifluoromethyl)cyclohexyl)methyl)sulfamamide]	0.218	
Cn1ncc2c(N3CC4(CC(N(CC(F)F)S(N)(=O)=O)C4)C3)ncnc21 [Compound 1.121, N-(2,2-difluoroethyl)-N-(2-(1-methyl-1H-pyrazolo[3,4-d]pyrimidin-4-yl)-2-azaspiro[3.3]heptan-6-yl)sulfamamide]	0.565	
CN(C1CC2(C1)CN(c1ncnc3[nH]cc(Cl)c13)C2)S(N)(=O)=O [Compound 1.124, N-(2-(5-chloro-7,7α-dihydro-4αH-pyrrolo[2,3-d]pyrimidin-4-yl)-2-azaspiro[3.3]heptan-6-yl)-N-methylsulfamamide]	1.86	
Cc1cc(Cl)n2ncnc(N3CC4(CC(N(C)Cc5ccc(S(N)(=O)=O)cc5)C4)C3)c12 [Compound 1.133, 4-(((2-(7-chloro-5-methylpyrrolo[2,1-f][1,2,4]triazin-4-yl)-2-azaspiro[3.3]heptan-6-yl)(methyl)amino)methyl)benzenesulfonamide]	0.27	

Continued by falling IC50 [2, 4], values first:

IC50 [2, 4] [µM]	Compound	also measured
0.181	Cc1cc(Cl)n2ncnc(N3CC4(CC(NCc5ccc(S(N)(=O)=O)cc5)C4)C3)c12 [Compound 1.132, 4-(((2-(7-chloro-5-methylpyrrolo[2,1-f][1,2,4]triazin-4-yl)-2-azaspiro[3.3]heptan-6-yl)amino)methyl)benzenesulfonamide]	
0.169	Cc1cc(Cl)n2ncnc(N3CC4(CC(N(CC(C)(C)C)S(N)(=O)=O)C4)C3)c12 [Compound 1.113, N-(2-(7-chloro-5-methylpyrrolo[2,1-f][1,2,4]triazin-4-yl)-2-azaspiro[3.3]heptan-6-yl)-N-neopentylsulfamamide]	
0.084	CCOc1cccc2c(N3CC(CCNS(N)(=O)=O)C3)ncnc12 [Compound 1.19, 4-(3-(2-sulfamoylaminoethyl)azetidine-1-yl)-8-ethoxyquinazoline]	EC50 [1, 5]: < 0.12 µM
0.072	Cc1cc(Cl)n2ncnc(N3CC4(CC(N(CC5CCC(F)(F)CC5)S(N)(=O)=O)C4)C3)c12 [Compound 1.118, N-(2-(7-chloro-5-methylpyrrolo[2,1-f][1,2,4]triazin-4-yl)-2-azaspiro[3.3]heptan-6-yl)-N-((4,4-difluorocyclohexyl)methyl)sulfamamide]	
0.069	Cc1cc(Cl)n2ncnc(N3CC4(CC(N(CC5CCC5)S(N)(=O)=O)C4)C3)c12 [Compound 1.116, N-(2-(7-chloro-5-methylpyrrolo[2,1-f][1,2,4]triazin-4-yl)-2-azaspiro[3.3]heptan-6-yl)-N-(cyclobutylmethyl)sulfamide]	
0.062	COCCN(C1CC2(C1)CN(c1ncnn3c(Cl)cc(C)c13)C2)S(N)(=O)=O [Compound 1.122, N-(2-(7-chloro-5-methylpyrrolo[1,2-f][1,2,4]triazin-4-yl)-2-azaspiro[3.3]heptan-6-yl)-N-(2-methoxyethyl)sulfamamide]	
0.055	COc1ccc2c(N3CC4(CC(N(CC(F)F)S(N)(=O)=O)C4)C3)ncnc2c1 [Compound 1.131, N-(2,2-difluoroethyl)-N-(2-(7-methoxyquinazolin-4-yl)-2-azaspiro[3.3]heptan-6-yl) sulfamamide]	
0.051	Cc1cc(Cl)n2ncnc(N3CC4(CC(N(CC5CC5)S(N)(=O)=O)C4)C3)c12 [Compound 1.115, N-(2-(7-chloro-5-methylpyrrolo[2,1-f][1,2,4]triazin-4-yl)-2-azaspiro[3.3]heptan-6-yl)-N-(cyclopropylmethyl)sulfamamide]	
0.047	Cc1cc(Cl)n2ncnc(N3CC4(CC(N(CC(F)(F)F)S(N)(=O)=O)C4)C3)c12 [Compound 1.129, N-(2-(7-chloro-5-methylpyrrolo[1,2-f][1,2,4]triazin-4-yl)-2-azaspiro[3.3]heptan-6-yl)-N-(2,2,2-trifluoroethyl)sulfamamide]	
0.043	Cc1cc(Cl)n2ncnc(N3CC4(CC(N(CCF)S(N)(=O)=O)C4)C3)c12 [Compound 1.127, N-[2-(7-chloro-5-methylpyrrolo[2,1-f][1,2,4]triazin-4-yl)-2-azaspiro[3.3]hept-6-yl]-2-fluoroethylsulfuric diamide]	
0.039	CCCCN(C1CC2(C1)CN(c1ncnn3c(Cl)cc(C)c13)C2)S(N)(=O)=O [Compound 1.114, N-butyl-N-(2-(7-chloro-5-methylpyrrolo[2,1-f][1,2,4]triazin-4-yl)-2-azaspiro[3.3]heptan-6-yl)sulfamamide]	
0.039	CN(C1CC2(C1)CN(c1ncnc3c(Cl)cn(C)c13)C2)S(N)(=O)=O [Compound 1.123, N-(2-(7-chloro-5-methyl-5H-pyrrolo[3,2-d]pyrimidin-4-yl)-2-azaspiro[3.3]heptan-6-yl)-N-methylsulfamamide]	
0.03	Cc1cc(Cl)n2ncnc(N3CC4(CC(N(CC(C)(F)F)S(N)(=O)=O)C4)C3)c12 [Compound 1.128]	
0.018	Cc1cc(Cl)n2ncnc(N3CC4(CC(N(CC(O)C(F)(F)F)S(N)(=O)=O)C4)C3)c12 (centres unmarked) [Compound 1.120, N-(2-(7-chloro-5-methylpyrrolo[2,1-f][1,2,4]triazin-4-yl)-2-azaspiro[3.3]heptan-6-yl)-N-(3,3,3-trifluoro-2-hydroxypropyl)sulfamamide]	
0.009	COc1cc2ncnc(N3CC(C)(CCNS(N)(=O)=O)C3)c2cc1OC [Compound 1.22, 4-(3-Methyl-3-(2-sulfamoylaminoethyl)azetidine-1-yl)-6,7-dimethoxyquinazoline]	EC50 [1, 5]: 0.49 µM

From patent publication US20240352046A1, “ECTONUCLEOTIDE PYROPHOSPHATASE-PHOSPHODIESTERASE-1 (ENPP1) INHIBITORS AND USES THEREOF” (1cBio, Inc., priority 2020, published 2024)
